{
  "source": "ChEMBL document CHEMBL6109092",
  "about": "“Anti-HBV activity of (R)-gentiandiol, a metabolite of Swertiamarin, in transgenic mice: Insights from non-targeted serum metabolomics” (Bioorg Med Chem, 2025)",
  "assay_type_in_all_cases": "functional, organism-based",
  "key": {"[1]": {"tested_on": "Hepatitis B virus", "assay": "In vivo antiviral activity against HBV infected in male C57BL/6NCrl mouse assessed as reduction in HBeAg level at 0.026 g/Kg, IG measured after 8 weeks by ELISA"}, "[2]": {"tested_on": "Hepatitis B virus", "assay": "In vivo antiviral activity against HBV infected in male C57BL/6NCrl mouse assessed as reduction in HBV-DNA level at 0.026 g/Kg, IG measured after 8 weeks by ELISA"}, "[3]": {"tested_on": "Mus musculus", "assay": "Reversal of citric acid level in HBV infected male C57BL/6NCrl mouse serum at 0.026 mg/kg, IG by UPLC-Q/TOF-MS analysis."}, "[4]": {"tested_on": "Mus musculus", "assay": "Reversal of phenylalanine level in HBV infected male C57BL/6NCrl mouse serum at 0.026 mg/kg, IG by UPLC-Q/TOF-MS analysis."}, "[5]": {"tested_on": "Mus musculus", "assay": "Reversal of arachidonic acid level in HBV infected male C57BL/6NCrl mouse serum at 0.026 mg/kg, IG by UPLC-Q/TOF-MS analysis."}, "[6]": {"tested_on": "Mus musculus", "assay": "Reversal of tyrosine in HBV infected male C57BL/6NCrl mouse serum at 0.026 mg/kg, IG by UPLC-Q/TOF-MS analysis."}, "[7]": {"tested_on": "Hepatitis B virus", "assay": "In vivo antiviral activity against HBV infected in male C57BL/6NCrl mouse assessed as reduction in HBsAg level at 0.026 g/Kg, IG measured after 8 weeks by ELISA"}, "[8]": {"tested_on": "Hepatitis B virus", "assay": "In vivo antiviral activity against HBV infected in male C57BL/6NCrl mouse assessed as reduction in HBV-DNA level at 0.065 mg/kg, IG measured after 8 weeks by ELISA"}, "[9]": {"tested_on": "Hepatitis B virus", "assay": "In vivo antiviral activity against HBV infected in male C57BL/6NCrl mouse assessed as reduction in HBeAg level at 0.065 mg/kg, IG measured after 8 weeks by ELISA"}, "[10]": {"tested_on": "Hepatitis B virus", "assay": "In vivo antiviral activity against HBV infected in male C57BL/6NCrl mouse assessed as reduction in HBsAg level at 0.065 mg/kg, IG measured after 8 weeks by ELISA"}, "[11]": {"tested_on": "Hepatitis B virus", "assay": "In vivo antiviral activity against HBV infected in male C57BL/6NCrl mouse assessed as reduction in HBeAg level at 6 mg/kg administered via tail vein measured after 8 weeks by ELISA"}, "[12]": {"tested_on": "Hepatitis B virus", "assay": "In vivo antiviral activity against HBV infected in male C57BL/6NCrl mouse assessed as reduction in HBV-DNA level at 6 mg/kg administered via tail vein measured after 8 weeks by ELISA"}, "[13]": {"tested_on": "Hepatitis B virus", "assay": "In vivo antiviral activity against HBV infected in male C57BL/6NCrl mouse assessed as reduction in HBsAg level at 6 mg/kg administered via tail vein measured after 8 weeks by ELISA"}, "[14]": {"tested_on": "Hepatitis B virus", "assay": "In vivo antiviral activity against HBV infected in male C57BL/6NCrl mouse assessed as reduction in HBV-DNA level at 1.5 mg/kg administered via tail vein measured after 8 weeks by ELISA"}, "[15]": {"tested_on": "Mus musculus", "assay": "Reversal of tyrosine in HBV infected male C57BL/6NCrl mouse serum at 50 to 150 mg/kg, administered via tail vein by UPLC-Q/TOF-MS analysis.", "details": "dose 50-150 mg/kg"}, "[16]": {"tested_on": "Hepatitis B virus", "assay": "In vivo antiviral activity against HBV infected in male C57BL/6NCrl mouse assessed as reduction in HBeAg level at 1.5 mg/kg administered via tail vein measured after 8 weeks by ELISA"}, "[17]": {"tested_on": "Hepatitis B virus", "assay": "In vivo antiviral activity against HBV infected in male C57BL/6NCrl mouse assessed as reduction in HBsAg level at 1.5 mg/kg administered via tail vein measured after 8 weeks by ELISA"}, "[18]": {"tested_on": "Hepatitis B virus", "assay": "In vivo antiviral activity against HBV infected in male C57BL/6NCrl mouse assessed as reduction in HBV-DNA level at 3 mg/kg administered via tail vein measured after 8 weeks by ELISA"}, "[19]": {"tested_on": "Mus musculus", "assay": "Reversal of phenylalanine level in HBV infected male C57BL/6NCrl mouse serum at 50 to 150 mg/kg, administered via tail vein by UPLC-Q/TOF-MS analysis.", "details": "dose 50-150 mg/kg"}, "[20]": {"tested_on": "Hepatitis B virus", "assay": "In vivo antiviral activity against HBV infected in male C57BL/6NCrl mouse assessed as reduction in HBV-DNA level administered via tail vein measured after 8 weeks by ELISA", "details": "dose 1.5-6 mg/kg"}, "[21]": {"tested_on": "Mus musculus", "assay": "Reduction in taurocholic acid in HBV infected male C57BL/6NCrl mouse serum at 50 to 150 mg/kg, administered via tail vein by UPLC-Q/TOF-MS analysis.", "details": "dose 50-150 mg/kg"}, "[22]": {"tested_on": "Mus musculus", "assay": "Reversal of arachidonic acid level in HBV infected male C57BL/6NCrl mouse serum at 50 to 150 mg/kg, administered via tail vein by UPLC-Q/TOF-MS analysis.", "details": "dose 50-150 mg/kg"}, "[23]": {"tested_on": "Hepatitis B virus", "assay": "In vivo antiviral activity against HBV infected in male C57BL/6NCrl mouse assessed as reduction in HBeAg level at 3 mg/kg administered via tail vein measured after 8 weeks by ELISA"}, "[24]": {"tested_on": "Mus musculus", "assay": "Reversal of citric acid level in HBV infected male C57BL/6NCrl mouse serum at 50 to 150 mg/kg, administered via tail vein by UPLC-Q/TOF-MS analysis.", "details": "dose 50-150 mg/kg"}, "[25]": {"tested_on": "Hepatitis B virus", "assay": "In vivo antiviral activity against HBV infected in male C57BL/6NCrl mouse assessed as reduction in HBsAg level at 3 mg/kg administered via tail vein measured after 8 weeks by ELISA"}},
  "note": "Activity calls are given as the source filed them. The calls are words filed in the database; no cut-off is given here.",
  "data": [
    {"compound": "C=C[C@H]1[C@H](O[C@@H]2O[C@H](CO)[C@@H](O)[C@H](O)[C@H]2O)OC=C2C(=O)OCC[C@]21O", "values": [
      {"measurement": "Activity", "setting": "[1]", "value": "Active"},
      {"measurement": "Activity", "setting": "[2]", "value": "Active"},
      {"measurement": "Activity", "setting": "[3]", "value": "Active"},
      {"measurement": "Activity", "setting": "[4]", "value": "Active"},
      {"measurement": "Activity", "setting": "[5]", "value": "Active"},
      {"measurement": "Activity", "setting": "[6]", "value": "Active"},
      {"measurement": "Activity", "setting": "[7]", "value": "Active"}
    ]},
    {"compound": "C=C1[C@H](CO)[C@@H](O)C[C@@H]1n1cnc2c(=O)[nH]c(N)nc21", "values": [
      {"measurement": "Activity", "setting": "[8]", "value": "Active"},
      {"measurement": "Activity", "setting": "[9]", "value": "Active"},
      {"measurement": "Activity", "setting": "[10]", "value": "Active"}
    ]},
    {"compound": "O=C1OCCc2c1cncc2[C@H](O)CO", "values": [
      {"measurement": "Activity", "setting": "[11]", "value": "inactive"},
      {"measurement": "Activity", "setting": "[12]", "value": "inactive"},
      {"measurement": "Activity", "setting": "[13]", "value": "inactive"}
    ]},
    {"compound": "O=C1OCCc2c1cncc2[C@@H](O)CO", "values": [
      {"measurement": "Activity", "setting": "[11]", "value": "Active"},
      {"measurement": "Activity", "setting": "[14]", "value": "Active"},
      {"measurement": "Activity", "setting": "[15]", "value": "Active"},
      {"measurement": "Activity", "setting": "[16]", "value": "Active"},
      {"measurement": "Activity", "setting": "[12]", "value": "Active"},
      {"measurement": "Activity", "setting": "[17]", "value": "Active"},
      {"measurement": "Activity", "setting": "[18]", "value": "Active"},
      {"measurement": "Activity", "setting": "[13]", "value": "Active"},
      {"measurement": "Activity", "setting": "[19]", "value": "Active"},
      {"measurement": "Activity", "setting": "[20]", "value": "Dose-dependent-effect"},
      {"measurement": "Activity", "setting": "[21]", "value": "Active"},
      {"measurement": "Activity", "setting": "[22]", "value": "Active"},
      {"measurement": "Activity", "setting": "[23]", "value": "Active"},
      {"measurement": "Activity", "setting": "[24]", "value": "Active"},
      {"measurement": "Activity", "setting": "[25]", "value": "Active"}
    ]}
  ]
}
